Results on 7 compounds are retold here after patent publication US9340590B2 (priority 2011, dated 2016).

Read-outs that look alike come from different tables or passages of the source. Positions of bridges follow the written chain, without caps; N, C: chain ends. Non-standard residues stand in square brackets, D forms with d. Residues, ends and D or L forms follow the SMILES beside them. *: point of attachment. Pent4ynoyl = C#CCCC(=O)*; Abu = CC[C@H](N)C(=O)O Bounds are passed on as bounds.

What all share (assay): cell-based
One test deals with hNav1.7 (Homo sapiens, UniProt Q15858). The format is cell-based. To be noted: IonWorks Quattro, read-out: IWQ Use Nav1.7. Background: Patch clamp records ionic current or voltage across a cell membrane.
A further test deals with hNav1.3 (Homo sapiens, UniProt Q9NY46). To be noted: IonWorks Quattro, read-out: IWQ Use Nav1.3.
The target of another test is hNav1.5 (Homo sapiens, UniProt Q14524). To be noted: IonWorks Quattro, read-out: IWQ Use Nav1.5.
hNav1.5, sequence (Q14524 whole entry, looked up): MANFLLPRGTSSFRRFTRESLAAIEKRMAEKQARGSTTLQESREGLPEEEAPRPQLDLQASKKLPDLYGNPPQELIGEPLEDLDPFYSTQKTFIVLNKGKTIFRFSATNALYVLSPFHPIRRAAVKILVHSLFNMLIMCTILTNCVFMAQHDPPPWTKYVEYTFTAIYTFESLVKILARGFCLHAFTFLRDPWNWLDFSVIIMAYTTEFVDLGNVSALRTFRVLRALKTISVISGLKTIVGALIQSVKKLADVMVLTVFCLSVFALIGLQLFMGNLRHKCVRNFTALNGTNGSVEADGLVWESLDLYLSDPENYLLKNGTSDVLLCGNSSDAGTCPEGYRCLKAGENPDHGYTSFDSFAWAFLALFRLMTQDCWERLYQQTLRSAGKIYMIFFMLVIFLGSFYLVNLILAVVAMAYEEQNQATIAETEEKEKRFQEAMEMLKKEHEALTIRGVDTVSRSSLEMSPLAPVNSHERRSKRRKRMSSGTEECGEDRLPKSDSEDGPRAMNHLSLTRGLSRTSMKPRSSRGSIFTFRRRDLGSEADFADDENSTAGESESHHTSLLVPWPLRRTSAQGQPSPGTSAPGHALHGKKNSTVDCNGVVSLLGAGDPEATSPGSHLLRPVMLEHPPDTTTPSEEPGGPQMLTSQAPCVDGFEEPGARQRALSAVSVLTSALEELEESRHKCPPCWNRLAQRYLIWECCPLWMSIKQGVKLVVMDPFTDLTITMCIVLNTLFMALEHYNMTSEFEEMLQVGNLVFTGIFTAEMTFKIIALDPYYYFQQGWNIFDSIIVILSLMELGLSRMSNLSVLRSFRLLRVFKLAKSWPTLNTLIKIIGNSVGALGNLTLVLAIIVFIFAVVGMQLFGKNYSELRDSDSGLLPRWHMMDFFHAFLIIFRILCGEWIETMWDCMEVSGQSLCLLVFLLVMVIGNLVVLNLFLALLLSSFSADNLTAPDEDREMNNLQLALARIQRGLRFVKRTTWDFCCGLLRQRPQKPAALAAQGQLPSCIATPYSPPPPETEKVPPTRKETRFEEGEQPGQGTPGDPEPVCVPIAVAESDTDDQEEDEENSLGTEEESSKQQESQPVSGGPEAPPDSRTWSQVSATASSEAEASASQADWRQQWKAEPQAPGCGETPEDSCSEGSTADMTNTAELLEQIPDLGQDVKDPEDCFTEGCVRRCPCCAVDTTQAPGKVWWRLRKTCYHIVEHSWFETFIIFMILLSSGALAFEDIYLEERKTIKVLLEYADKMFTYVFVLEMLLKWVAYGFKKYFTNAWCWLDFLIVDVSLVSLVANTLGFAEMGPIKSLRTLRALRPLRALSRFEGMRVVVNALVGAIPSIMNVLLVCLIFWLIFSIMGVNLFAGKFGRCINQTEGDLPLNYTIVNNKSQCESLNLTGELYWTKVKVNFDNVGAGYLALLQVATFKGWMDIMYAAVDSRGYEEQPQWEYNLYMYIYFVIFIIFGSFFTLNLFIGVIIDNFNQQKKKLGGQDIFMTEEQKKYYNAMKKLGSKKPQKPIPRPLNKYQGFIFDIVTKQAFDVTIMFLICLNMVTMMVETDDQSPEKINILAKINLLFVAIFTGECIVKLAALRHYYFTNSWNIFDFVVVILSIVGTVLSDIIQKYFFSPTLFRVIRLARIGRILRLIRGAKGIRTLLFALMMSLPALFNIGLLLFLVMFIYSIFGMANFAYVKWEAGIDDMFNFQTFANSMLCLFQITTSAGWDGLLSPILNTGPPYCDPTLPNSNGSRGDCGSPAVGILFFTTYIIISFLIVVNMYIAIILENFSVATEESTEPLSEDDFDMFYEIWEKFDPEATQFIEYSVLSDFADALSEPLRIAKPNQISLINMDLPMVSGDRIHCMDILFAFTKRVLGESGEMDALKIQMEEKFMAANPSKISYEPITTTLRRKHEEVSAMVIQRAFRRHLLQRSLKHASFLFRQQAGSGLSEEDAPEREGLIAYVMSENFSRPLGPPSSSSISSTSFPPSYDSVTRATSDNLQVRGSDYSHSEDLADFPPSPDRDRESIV

hNav1.7, sequence (Q15858 whole entry, looked up): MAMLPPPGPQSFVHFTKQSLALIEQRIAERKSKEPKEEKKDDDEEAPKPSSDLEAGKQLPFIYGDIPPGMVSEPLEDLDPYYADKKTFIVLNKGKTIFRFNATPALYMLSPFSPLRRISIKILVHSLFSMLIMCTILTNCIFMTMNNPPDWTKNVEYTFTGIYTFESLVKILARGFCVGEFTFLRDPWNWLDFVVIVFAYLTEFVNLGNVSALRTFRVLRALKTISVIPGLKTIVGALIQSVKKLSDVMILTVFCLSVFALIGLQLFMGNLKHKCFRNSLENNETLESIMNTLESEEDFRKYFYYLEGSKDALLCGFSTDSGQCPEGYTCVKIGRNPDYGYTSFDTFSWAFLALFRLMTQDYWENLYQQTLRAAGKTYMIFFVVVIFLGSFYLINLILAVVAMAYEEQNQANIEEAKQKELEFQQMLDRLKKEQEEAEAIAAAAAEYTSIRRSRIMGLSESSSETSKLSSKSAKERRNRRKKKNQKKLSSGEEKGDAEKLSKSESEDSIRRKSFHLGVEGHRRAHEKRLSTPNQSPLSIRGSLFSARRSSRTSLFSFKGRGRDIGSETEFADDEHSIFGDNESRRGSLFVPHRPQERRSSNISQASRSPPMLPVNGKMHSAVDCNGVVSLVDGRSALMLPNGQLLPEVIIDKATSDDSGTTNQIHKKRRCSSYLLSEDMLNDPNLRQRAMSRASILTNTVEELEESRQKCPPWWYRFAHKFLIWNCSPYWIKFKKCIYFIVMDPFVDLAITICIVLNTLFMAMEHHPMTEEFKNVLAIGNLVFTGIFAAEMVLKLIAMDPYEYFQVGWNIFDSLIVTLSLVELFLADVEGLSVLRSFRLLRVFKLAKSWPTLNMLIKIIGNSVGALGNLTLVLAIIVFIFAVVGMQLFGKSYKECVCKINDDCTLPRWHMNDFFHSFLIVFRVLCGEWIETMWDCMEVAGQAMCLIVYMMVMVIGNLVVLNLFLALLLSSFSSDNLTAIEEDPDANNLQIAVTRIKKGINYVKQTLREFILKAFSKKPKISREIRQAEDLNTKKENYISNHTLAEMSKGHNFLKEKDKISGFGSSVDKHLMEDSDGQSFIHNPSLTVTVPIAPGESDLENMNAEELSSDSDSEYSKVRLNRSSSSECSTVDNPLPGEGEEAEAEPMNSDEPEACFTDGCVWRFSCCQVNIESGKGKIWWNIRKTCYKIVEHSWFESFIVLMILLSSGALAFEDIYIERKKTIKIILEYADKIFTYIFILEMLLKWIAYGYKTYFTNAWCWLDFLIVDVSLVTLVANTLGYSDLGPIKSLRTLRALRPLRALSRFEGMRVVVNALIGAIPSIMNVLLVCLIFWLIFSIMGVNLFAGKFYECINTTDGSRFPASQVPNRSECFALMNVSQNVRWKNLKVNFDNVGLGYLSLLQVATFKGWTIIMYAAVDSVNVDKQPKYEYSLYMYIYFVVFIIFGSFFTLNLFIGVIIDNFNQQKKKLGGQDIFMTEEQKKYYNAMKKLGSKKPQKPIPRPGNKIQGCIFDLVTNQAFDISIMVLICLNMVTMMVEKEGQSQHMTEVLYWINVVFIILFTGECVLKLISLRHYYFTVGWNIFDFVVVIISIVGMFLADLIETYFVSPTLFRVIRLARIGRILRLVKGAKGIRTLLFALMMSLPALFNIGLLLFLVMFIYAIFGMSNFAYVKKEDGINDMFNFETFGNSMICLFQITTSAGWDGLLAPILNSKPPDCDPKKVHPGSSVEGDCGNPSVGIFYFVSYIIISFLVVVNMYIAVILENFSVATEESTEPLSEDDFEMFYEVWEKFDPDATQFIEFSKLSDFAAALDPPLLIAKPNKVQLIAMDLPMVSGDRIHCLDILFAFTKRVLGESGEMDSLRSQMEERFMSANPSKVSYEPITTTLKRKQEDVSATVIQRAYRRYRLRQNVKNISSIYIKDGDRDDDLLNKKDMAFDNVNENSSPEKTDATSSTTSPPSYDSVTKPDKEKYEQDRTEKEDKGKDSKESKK

As for `CC[C@H](C)[C@@H]1NC(=O)[C@H](CC(=O)O)NC(=O)[C@@H]2CCCN2C(=O)[C@H]([C@@H](C)CC)NC(=O)[C@@H]2CSSC[C@@H]3NC(=O)[C@H](C(C)C)NC(=O)[C@H](CC(C)C)NC(=O)[C@H](CC(N)=O)NC(=O)[C@@H]4CCCN4C(=O)[C@H](CCCNC(=N)N)NC(=O)[C@H](CSSC[C@H](NC(=O)[C@@H](N)CC(=O)O)C(=O)N[C@@H](CC(C)C)C(=O)NCC(=O)N[C@@H](C)C(=O)N[C@@H](CC(C)C)C(=O)N[C@@H](CCCNC(=N)N)C(=O)N[C@@H](CCCCN)C(=O)N2)NC(=O)[C@H](CSSC[C@@H](C(=O)N[C@@H](CCCCN)C(=O)N[C@@H](Cc2ccc(O)cc2)C(=O)N[C@H](C(=O)N[C@@H](Cc2ccccc2)C(=O)O)C(C)C)NC(=O)[C@H](Cc2c[nH]c4ccccc24)NC(=O)[C@H](CCCNC(=N)N)NC(=O)[C@H](Cc2c[nH]cn2)NC(=O)[C@H]([C@@H](C)O)NC(=O)[C@H](CCCNC(=N)N)NC(=O)[C@H](CO)NC3=O)NC(=O)[C@H](CCCCN)NC(=O)[C@H](CC(=O)O)NC1=O` [compound 865] (H-DCLGALRKCIPDIDKCCRPNLVCSRTHRWCKYVF-OH; disulfide 2-17, 9-23, 16-30), the IC50 on hNav1.7 (use-dependent block, hNav1.7) is more than 5000 nM; at hNav1.3 (use-dependent block, hNav1.3), more than 5000 nM; at hNav1.5 (use-dependent block, hNav1.5), more than 5000 nM.

Consider `CC[C@H](C)[C@@H]1NC(=O)[C@@H]2CSSC[C@@H]3NC(=O)[C@H](C(C)C)NC(=O)[C@H](CC(C)C)NC(=O)[C@H](CC(N)=O)NC(=O)[C@@H]4CCCN4C(=O)[C@H](CCCNC(=N)N)NC(=O)[C@H](CSSC[C@H](NC(=O)[C@@H](N)CC(=O)O)C(=O)N[C@@H](CC(C)C)C(=O)NCC(=O)N[C@@H](C)C(=O)N[C@@H](Cc4ccccc4)C(=O)N[C@@H](CCCNC(=N)N)C(=O)N[C@@H](CCCCN)C(=O)N2)NC(=O)[C@H](CSSC[C@@H](C(=O)N[C@@H](CCCCN)C(=O)N[C@@H](Cc2ccc(O)cc2)C(=O)N[C@H](C(=O)N[C@@H](Cc2ccccc2)C(=O)O)C(C)C)NC(=O)[C@H](Cc2c[nH]c4ccccc24)NC(=O)[C@H](CCCNC(=N)N)NC(=O)[C@H](Cc2c[nH]cn2)NC(=O)[C@H]([C@@H](C)O)NC(=O)[C@H](CCCNC(=N)N)NC(=O)[C@H](CO)NC3=O)NC(=O)[C@H](CCCCN)NC(=O)[C@H](CC(=O)O)NC(=O)[C@H](CCCCN)NC(=O)[C@H](CC(=O)O)NC(=O)[C@@H]2CCCN2C1=O` [compound 843], for which the IC50 stood at 3600 nM at hNav1.7 (use-dependent block, hNav1.7); 300 nM on hNav1.3 (use-dependent block, hNav1.3); 2800 nM on hNav1.5 (use-dependent block, hNav1.5).

As for `CC[C@H](C)[C@@H]1NC(=O)[C@@H]2CSSC[C@@H]3NC(=O)[C@H](C(C)C)NC(=O)[C@H](CC(C)C)NC(=O)[C@H](CC(N)=O)NC(=O)[C@@H]4CCCN4C(=O)[C@H](CCCNC(=N)N)NC(=O)[C@H](CSSC[C@H](NC(=O)[C@@H](N)CC(=O)O)C(=O)N[C@@H](CC(C)C)C(=O)NCC(=O)N[C@@H](Cc4ccc(C(=O)c5ccccc5)cc4)C(=O)N[C@@H](CC(C)C)C(=O)N[C@@H](CCCNC(=N)N)C(=O)N[C@@H](CCCCN)C(=O)N2)NC(=O)[C@H](CSSC[C@@H](C(=O)N[C@@H](CCCCN)C(=O)N[C@@H](Cc2ccc(O)cc2)C(=O)N[C@H](C(=O)N[C@@H](Cc2ccccc2)C(N)=O)C(C)C)NC(=O)[C@H](Cc2c[nH]c4ccccc24)NC(=O)[C@H](CCCCN)NC(=O)[C@H](Cc2c[nH]cn2)NC(=O)[C@H]([C@@H](C)O)NC(=O)[C@H](CCCNC(=N)N)NC(=O)[C@H](CO)NC3=O)NC(=O)[C@H](CCCCN)NC(=O)[C@H](CC(=O)O)NC(=O)[C@H](CC(N)=O)NC(=O)[C@H](CC(=O)O)NC(=O)[C@@H]2CCCN2C1=O` [compound 665], the IC50 on hNav1.7 (use-dependent protocol, hNav1.7) is 230 nM; at hNav1.3 (use-dependent protocol, hNav1.3), 30 nM; on hNav1.5 (use-dependent protocol, hNav1.5), more than 5000 nM.

As for `CC[C@H](C)[C@@H]1NC(=O)[C@@H]2CSSC[C@@H]3NC(=O)[C@H](CCSC)NC(=O)[C@H](CC(C)C)NC(=O)[C@H](CC(N)=O)NC(=O)[C@@H]4CCCN4C(=O)[C@H](CCCNC(=N)N)NC(=O)[C@H](CSSC[C@H](NC(=O)[C@@H](N)CC(=O)O)C(=O)N[C@@H](CC(C)C)C(=O)NCC(=O)N[C@@H](Cc4ccccc4)C(=O)N[C@@H](CCSC)C(=O)N[C@@H](CCCNC(=N)N)C(=O)N[C@@H](CCCCN)C(=O)N2)NC(=O)[C@H](CSSC[C@@H](C(=O)N[C@@H](CCCCN)C(=O)N[C@@H](Cc2ccc(O)cc2)C(=O)N[C@H](C(=O)N[C@@H](Cc2ccccc2)C(N)=O)C(C)C)NC(=O)[C@H](Cc2c[nH]c4ccccc24)NC(=O)[C@H](CCCCN)NC(=O)[C@H](Cc2c[nH]cn2)NC(=O)[C@H]([C@@H](C)O)NC(=O)[C@H](CCCNC(=N)N)NC(=O)[C@H](CO)NC3=O)NC(=O)[C@H](CCCCN)NC(=O)[C@H](CC(=O)O)NC(=O)[C@H](CC(N)=O)NC(=O)[C@H](CC(=O)O)NC(=O)[C@@H]2CCCN2C1=O` [compound 332] (H-DCLGFMRKCIPDNDKCCRPNLMCSRTHKWCKYVF-NH2; disulfide 2-17, 9-23, 16-30), the IC50 at hNav1.7 (Use) was found to be 90 nM; at hNav1.3 (Use), 80 nM; at hNav1.5 (Use) it was 4610 nM.

Regarding `CC[C@H](C)[C@@H]1NC(=O)[C@@H]2CSSC[C@@H]3NC(=O)[C@H](C(C)C)NC(=O)[C@H](CC(C)C)NC(=O)[C@H](CC(N)=O)NC(=O)[C@@H]4CCCN4C(=O)[C@H](CCCNC(=N)N)NC(=O)[C@H](CSSC[C@H](NC(=O)[C@@H](N)CC(=O)O)C(=O)N[C@@H](CC(C)C)C(=O)NCC(=O)N[C@@H](Cc4ccccc4)C(=O)N[C@@H](CCSC)C(=O)N[C@@H](CCCNC(=N)N)C(=O)N[C@@H](CCCCN)C(=O)N2)NC(=O)[C@H](CSSC[C@@H](C(=O)N[C@@H](CCCCN)C(=O)N[C@@H](Cc2ccc(O)cc2)C(=O)N[C@H](C(=O)N[C@@H](Cc2ccccc2)C(N)=O)C(C)C)NC(=O)[C@H](Cc2c[nH]c4ccccc24)NC(=O)[C@H](CCCCN)NC(=O)[C@H](Cc2cnc[nH]2)NC(=O)[C@H]([C@@H](C)O)NC(=O)[C@H](CCCNC(=N)N)NC(=O)[C@H](CO)NC3=O)NC(=O)[C@H](CCCCN)NC(=O)[C@H](CC(=O)O)NC(=O)[C@H](CCC(=O)O)NC(=O)[C@H](CC(=O)O)NC(=O)[C@@H]2CCCN2C1=O` [compound 27] (H-DCLGFMRKCIPDEDKCCRPNLVCSRTHKWCKYVF-NH2; disulfide 2-17, 9-23, 16-30), the IC50 at hNav1.7 (Use) stood at 260 nM; on hNav1.3 (Use), 220 nM; on hNav1.5 (Use) it was 9380 nM.

As for `CSCC[C@@H]1NC(=O)[C@H](Cc2ccccc2)NC(=O)CNC(=O)[C@H](CC(C)C)NC(=O)[C@@H](NC(=O)[C@@H](N)CC(=O)O)CSSC[C@@H]2NC(=O)[C@@H]3CSSC[C@@H](C(=O)N[C@@H](CCCCN)C(=O)N[C@@H](Cc4ccc(O)cc4)C(=O)N[C@H](C(=O)N[C@@H](Cc4ccccc4)C(N)=O)C(C)C)NC(=O)[C@H](Cc4c[nH]c5ccccc45)NC(=O)[C@H](CCCCN)NC(=O)[C@H](Cc4cnc[nH]4)NC(=O)[C@H]([C@@H](C)O)NC(=O)[C@H](CCCNC(=N)N)NC(=O)[C@H](CO)NC(=O)[C@H](CSSC[C@H](NC(=O)[C@H](CCCCN)NC(=O)[C@H](CCCNC(=N)N)NC1=O)C(=O)N[C@@H](CC(C)C)C(=O)N1CCC[C@H]1C(=O)N[C@@H](CC(=O)O)C(=O)N[C@@H](CC(N)=O)C(=O)N[C@@H](CC(=O)O)C(=O)N[C@@H](CCCCN)C(=O)N3)NC(=O)[C@H](C(C)C)NC(=O)[C@H](CC(C)C)NC(=O)[C@H](CC(N)=O)NC(=O)[C@@H]1CCCN1C(=O)[C@H](CCCNC(=N)N)NC2=O` [compound 303] (H-DCLGFMRKCLPDNDKCCRPNLVCSRTHKWCKYVF-NH2; disulfide 2-17, 9-23, 16-30), the IC50 on hNav1.7 (Use) worked out at 130 nM; on hNav1.3 (Use), 80 nM; on hNav1.5 (Use) it was 8130 nM.

On to `C#CCCC(=O)N[C@@H](CC(=O)O)C(=O)N[C@H]1CSSC[C@@H]2NC(=O)[C@@H]3CSSC[C@@H](C(=O)N[C@@H](CCCCN)C(=O)N[C@@H](Cc4ccc(O)cc4)C(=O)N[C@H](C(=O)N[C@@H](Cc4ccccc4)C(N)=O)C(C)C)NC(=O)[C@H](Cc4c[nH]c5ccccc45)NC(=O)[C@H](CCCCN)NC(=O)[C@H](Cc4c[nH]cn4)NC(=O)[C@H]([C@@H](C)O)NC(=O)[C@H](CCCNC(=N)N)NC(=O)[C@H](CO)NC(=O)[C@H](CSSC[C@H](NC(=O)[C@H](CCCCN)NC(=O)[C@H](CCCNC(=N)N)NC(=O)[C@H](Cc4ccccc4)NC(=O)[C@H](C)NC(=O)CNC(=O)[C@H](CC(C)C)NC1=O)C(=O)N[C@@H]([C@@H](C)CC)C(=O)N1CCC[C@H]1C(=O)N[C@@H](CC(=O)O)C(=O)N[C@@H](CC)C(=O)N[C@@H](CC(=O)O)C(=O)N[C@@H](CCCCN)C(=O)N3)NC(=O)[C@H](C(C)C)NC(=O)[C@H](CC(C)C)NC(=O)[C@H](CC(N)=O)NC(=O)[C@@H]1CCCN1C(=O)[C@H](CCCNC(=N)N)NC2=O` [compound 757] (Pent4ynoyl-DCLGAFRKCIPD[Abu]DKCCRPNLVCSRTHKWCKYVF-NH2; disulfide 2-17, 9-23, 16-30), for which the IC50 on hNav1.7 (use-dependent block, hNav1.7) was determined as 710 nM; at hNav1.3 (use-dependent block, hNav1.3), 280 nM; at hNav1.5 (use-dependent block, hNav1.5), 34900 nM.
